Laboratory results taken from patent US20230390274A1 (EPIRIUM BIO INC., priority 2020, published 2023).
Like-named read-outs stand apart in the source and are kept apart here. Values belong to the compound of their own block, whether it stands above or below them.

Experiments:
[1] = Pharmacokinetic study in mice, intravenous 1 mg/kg; assay type: in vivo, C57BL/6 mice
Protocol: Each mice PK study consisted of nine male C57BL/6 mice per group with sparse sampling design (n=3 mice per time point). The animals from intravenous groups were dosed with solution formulation of compounds via tail vein at 1 mg/kg dose. Ten compounds were screened in mice and one compound (the compound of Formula IV) was dosed in rat (n=3; serial sampling) following intravenous dose administration at 1 mg/kg dose. The solution formulation for compounds was prepared in 5% v/v DMA, 25% v/v PEG-400, and 70% v/v HPBCD (30% w/v); 15% v/v DMA, 5% Solutol HS-15, and 80% 1:1 PEG-300: Normal saline (2.25%); or 10% v/v DMA, 25% PEG-400, and 65% HPBCD (30% w/v solution). The dosing volume was 1 and 5 mL/kg for intravenous dose in rat and mice respectively. Blood samples (approximately 60 μL from mice and 120 μL from rats) were collected under light isoflurane anesthesia from a set of three mice at 0, 0.08, 0.25, 0.5, 1, 2, 4, 8, 12, and 24 hours post-dose. Plasma was harvested by centrifugation of blood and stored at −70±10° C. until analysis. Fit-for purpose LC-MS/MS method was developed and samples were processed by protein precipitation method. Non-Compartmental-Analysis tool of Phoenix WinNonlinR (Version 8.0) was used to assess the pharmacokinetic parameters. The areas under the concentration time curve (AUClast and AUCinf) were calculated by linear trapezoidal rule. The terminal elimination rate constant, Ke was determined by regression analysis of the linear terminal portion of the log plasma concentration-time curve. The terminal half-life (T1/2) was estimated at 0.693/ke. CLIV=Dose/AUCinf; Vss=MRT×CLIV.

[2] = Compound stability in mouse liver microsomes; assay type: in vitro ADME; conditions: 37° C.
Protocol: A microsomal mixture comprising mouse liver microsomes and a potassium phosphate buffer was prepared at a concentration of 1.428 mg/mL in 2 mL tubes. 1.6 μL of test compound or imipramine as a positive control was added to the mixture, and 70 μL was transferred to a 96 well plate and pre-incubated at 37° C. for 5 minutes. After pre-incubation, […] 30 μL of NADPH (3.33 mM in potassium phosphate buffer) was added. The reaction mixtures were incubated at 37° C. for 15 and 45 minutes. Reactions without NADPH and buffer controls (minus NADPH) were conducted to rule out non-NADPH metabolism and chemical instability in the incubation buffer. The reactions were quenched with 100 μL ice cold acetonitrile containing an internal standard. The plates were centrifuged at 4000 RPM for 15 minutes and 100 μL aliquots were analyzed for parent compound disappearance by LC-MS/MS. The peak area ratios of analyte versus internal standard were used to calculate the percent remaining at the end of 45 minutes.

15-PGDH/HPGD = 15-PGDH/HPGD (Homo sapiens (Human), UniProt P15428); experiment: hPGDH inhibitor screening biochemical assay
Chain of 15-PGDH/HPGD (P15428 whole entry): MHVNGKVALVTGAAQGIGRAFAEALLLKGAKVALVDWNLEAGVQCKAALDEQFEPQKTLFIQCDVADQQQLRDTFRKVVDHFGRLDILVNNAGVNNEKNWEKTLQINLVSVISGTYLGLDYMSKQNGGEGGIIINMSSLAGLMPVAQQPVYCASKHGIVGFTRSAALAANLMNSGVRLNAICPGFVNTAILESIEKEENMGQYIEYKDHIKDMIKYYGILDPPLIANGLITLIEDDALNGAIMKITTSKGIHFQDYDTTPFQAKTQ
Outline: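 10 nM recombinant 15-PGDH was preincubated with compound (10-point) for 10 min at 37° C. in 50 mM Tris-HCl pH 7.5, 0.01% Tween 20. Then 15 μM PGE2 and 0.25 mM NAD+ were added for 10 min at rt. NADH fluorescence (ex/em 340/485 nm) gave % inhibition versus 1% DMSO and a four-parameter IC50.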

[3] = 10 nM 15-PGDH/HPGD, 15 μM PGE2, 0.25 mM NAD, read-out: hPGDH: Average IC50
[4] = Table 2, PGDH inhibitors with a phenyl core, read-out: hPGDH: IC50
[5] = Table 1, PGDH inhibitors with a 6-5 ring core, read-out: hPGDH: IC50

AUCinf [1]: 131.66 ng·h/mL
AUClast [1]: 130.44 ng·h/mL
C0/Cmax [1]: 663.41 ng/mL
CL [1]: 126.59 mL/min/kg
T1/2 [1]: 9.6 min
Vss [1]: 1.39 L/kg
% Remaining at 45 Minutes (Mouse Liver Microsomes + NADPH) [2]: 84%
SMILES: COCCNC(=O)c1ccc(-n2ccc3cc(C(=O)N4CCC(F)CC4)cnc32)cc1 [Formula XI]

AUCinf [1]: 259.43 ng·h/mL
AUClast [1]: 256.19 ng·h/mL
C0/Cmax [1]: 571.21 ng/mL
CL [1]: 64.24 mL/min/kg
T1/2 [1]: 42 min
Vss [1]: 2.52 L/kg
% Remaining at 45 Minutes (Mouse Liver Microsomes + NADPH) [2]: 89%
SMILES: Cc1c(C(=O)N2CCC(F)CC2)cnc2c1ccn2-c1ccc(C(N)=O)cc1 [Formula VI]

AUCinf [1]: 156.23 ng·h/mL
AUClast [1]: 156.13 ng·h/mL
C0/Cmax [1]: 749.07 ng/mL
CL [1]: 106.68 mL/min/kg
T1/2 [1]: 12 min
Vss [1]: 1.52 L/kg
% Remaining at 45 Minutes (Mouse Liver Microsomes + NADPH) [2]: 70%
SMILES: NC(=O)c1ccc(-n2ccc3cc(C(=O)N4CCC(F)CC4)cnc32)cc1 [Formula IX]

AUCinf [1]: 214.11 ng·h/mL
AUClast [1]: 211.95 ng·h/mL
C0/Cmax [1]: 633.31 ng/mL
CL [1]: 77.84 mL/min/kg
T1/2 [1]: 20.4 min
Vss [1]: 1.56 L/kg
% Remaining at 45 Minutes (Mouse Liver Microsomes + NADPH) [2]: 88%
SMILES: CNC(=O)c1ccc(-n2ccc3cc(C(=O)N4CCC(F)CC4)cnc32)cc1 [Formula VII]

IC50 (15-PGDH/HPGD; [3]): < 100 nM
SMILES: N#Cc1ccc(-n2cnc3cc(C(=O)N4CC(Cl)C4)cnc32)cc1 [A-194]

IC50 (15-PGDH/HPGD; [3]): < 100 nM
SMILES: COc1ccc(-n2cnc3cc(C(=O)N4CCC(F)CC4)ccc32)nc1 [A-38]

IC50 (15-PGDH/HPGD; [3]): ≥ 1000 nM
SMILES: CN(C(=O)c1ccc2c(c1)ncn2-c1cccc(Cl)c1)C1CC1 [A-23, 1-(3-chlorophenyl)-N-cyclopropyl-N-methyl-1H-benzo[d]imidazole-5-carboxamide]

IC50 (15-PGDH/HPGD; [5]): 20.1 nM
SMILES: COc1ccc(-n2cnc3cc(C(=O)N4CCCCC4)cnc32)cc1 [drawing 80]

IC50 (15-PGDH/HPGD; [3]): < 100 nM
SMILES: NC(=O)c1ccc(-n2ccc3cc(C(=O)N4CCC(F)CC4)cnc32)cn1 [A-347]

IC50 (15-PGDH/HPGD; [3]): < 100 nM
SMILES: COc1cc(C(=O)N2CCCCC2)ccc1COc1ccccc1Cl [A-71]

IC50 (15-PGDH/HPGD; [5]): 158 nM
SMILES: O=C(c1ccc2c(c1)ncn2-c1cccc(Cl)c1)N1CCC(F)C1 (stereo not shown)

IC50 (15-PGDH/HPGD; [3]): < 100 nM
SMILES: COc1ccc(-n2nnc3cc(C(=O)N4CCCCC4)ccc32)cc1 [A-313, (1-(4-methoxyphenyl)-1H-benzo[d][1,2,3]triazol-5-yl)(piperidin-1-yl)methanone]

IC50 (15-PGDH/HPGD; [3]): < 100 nM
SMILES: O=C(c1cnc2c(ccn2-c2ccc3c(c2)OCO3)c1)N1CCC(F)CC1 [A-298]

IC50 (15-PGDH/HPGD; [5]): 57.4 nM
SMILES: COc1ccc(-n2cnc3cc(C(=O)N4CCC(F)(F)CC4)cnc32)cc1 [drawing 78]

The remaining lines, values behind:

SMILES: CNC(=O)c1ccc(-n2ccc3cc(C(=O)N4CCCCC4)cnc32)cc1 [Formula VIII]
AUCinf [1]: 156.49 ng·h/mL
AUClast [1]: 156.43 ng·h/mL
C0/Cmax [1]: 1012.93 ng/mL
CL [1]: 106.5 mL/min/kg
T1/2 [1]: 26.4 min
Vss [1]: 1.58 L/kg
% Remaining at 45 Minutes (Mouse Liver Microsomes + NADPH) [2]: 80%

SMILES: O=C(c1cnc2c(ccn2-c2ccc(O)nc2)c1)N1CCCCC1 [Formula XIV]
AUCinf [1]: 96.33 ng·h/mL
AUClast [1]: 88.28 ng·h/mL
C0/Cmax [1]: 165.86 ng/mL
CL [1]: 173.02 mL/min/kg
T1/2 [1]: 16.2 min
Vss [1]: 3.99 L/kg
% Remaining at 45 Minutes (Mouse Liver Microsomes + NADPH) [2]: 74%

SMILES: NC(=O)c1ncc(-n2ccc3cc(C(=O)N4CCCCC4)cnc32)cn1 [Formula XII]
AUCinf [1]: 129.4 ng·h/mL
AUClast [1]: 117.19 ng·h/mL
C0/Cmax [1]: 490.48 ng/mL
CL [1]: 128.8 mL/min/kg
T1/2 [1]: 38.4 min
Vss [1]: 5.16 L/kg
% Remaining at 45 Minutes (Mouse Liver Microsomes + NADPH) [2]: 81%

SMILES: COCCNC(=O)c1ccc(-n2ccc3cc(C(=O)N4CCCCC4)cnc32)cc1 [Formula X]
AUCinf [1]: 147.4 ng·h/mL
AUClast [1]: 146.28 ng·h/mL
C0/Cmax [1]: 1272.79 ng/mL
CL [1]: 113.07 mL/min/kg
T1/2 [1]: 4.2 min
Vss [1]: 0.58 L/kg
% Remaining at 45 Minutes (Mouse Liver Microsomes + NADPH) [2]: 89%

SMILES: O=C(O)c1cccc(-n2ccc3cc(C(=O)N4CCC(F)(F)CC4)cnc32)c1 [A-287, 3-(5-(4,4-difluoropiperidine-1-carbonyl)-1H-pyrrolo[2,3-b]pyridin-1-yl)benzoic acid]
IC50 (15-PGDH/HPGD; [3]): < 100 nM

SMILES: N/C(=N\O)c1ccc(-n2ccc3cc(C(=O)N4CCCCC4)cnc32)cc1 [A-212]
IC50 (15-PGDH/HPGD; [3]): < 100 nM

SMILES: O=C(Nc1ccccc1)c1ccc2c(c1)ncn2-c1cccc(Cl)c1 [A-16]
IC50 (15-PGDH/HPGD; [3]): ≥ 1000 nM

SMILES: COc1ccccc1C(=O)Nc1ccc(C(=O)N2CCCCC2)cc1 [A-80]
IC50 (15-PGDH/HPGD; [3]): < 100 nM

SMILES: O=C(c1cnc2c(ccn2-c2ccc(O)nc2)c1)N1CCCCC1 [A-155]
IC50 (15-PGDH/HPGD; [3]): < 100 nM

SMILES: COc1ccccc1C(=O)N(C)c1ccc(C(=O)N2CCCCC2)cc1 [drawing 116]
IC50 (15-PGDH/HPGD; [4]): 2280 nM

SMILES: CS(=O)(=O)c1cccc(-n2ccc3cc(C(=O)N4CCCCC4)cnc32)c1 [A-152]
IC50 (15-PGDH/HPGD; [3]): < 100 nM

SMILES: N#Cc1ccc(-n2ccc3cc(C(=O)N4CCC(F)(F)CC4)cnc32)cc1O [A-243]
IC50 (15-PGDH/HPGD; [3]): < 100 nM

SMILES: O=C(Nc1ccc(C(=O)N2CCCCC2)cc1)c1ccccc1Cl
IC50 (15-PGDH/HPGD; [4]): 277 nM

SMILES: N#Cc1ncc(-n2ccc3cc(C(=O)N4CCCCC4)cnc32)cn1 [A-118]
IC50 (15-PGDH/HPGD; [3]): < 100 nM

SMILES: CC1(C)NC(=O)N(c2ccc(-n3ccc4cc(C(=O)N5CCC(F)(F)CC5)cnc43)cn2)C1=O [A-255]
IC50 (15-PGDH/HPGD; [3]): < 100 nM

SMILES: O=C(Nc1ccn(C2CC2)n1)c1cccc(-n2ccc3cc(C(=O)N4CCC(F)(F)CC4)cnc32)c1 [A-283, N-(1-cyclopropyl-1H-pyrazol-3-yl)-3-(5-(4,4-difluoropiperidine-1-carbonyl)-1H-pyrrolo[2,3-b]pyridin-1-yl)benzamide]
IC50 (15-PGDH/HPGD; [3]): < 100 nM

SMILES: O=C(NCCO)c1ccc(-n2ccc3cc(C(=O)N4CCC(F)(F)CC4)cnc32)cc1 [A-223]
IC50 (15-PGDH/HPGD; [3]): < 100 nM

SMILES: CC(C)(C)CNC(=O)c1ccc(-n2ccc3cc(C(=O)N4CCC(F)(F)CC4)cnc32)cn1 [A-240, 5-(5-(4,4-difluoropiperidine-1-carbonyl)-1H-pyrrolo[2,3-b]pyridin-1-yl)-N-neopentylpicolinamide]
IC50 (15-PGDH/HPGD; [3]): < 100 nM

SMILES: Nc1cncc(-n2ccc3cc(C(=O)N4CCCCC4)cnc32)c1 [A-156]
IC50 (15-PGDH/HPGD; [3]): < 100 nM

SMILES: Cn1cc(-n2ccc3cc(C(=O)N4CCCCC4)cnc32)cn1 [A-49]
IC50 (15-PGDH/HPGD; [3]): < 100 nM

SMILES: COc1ccc(-n2ccc3c(N)c(C(=O)N4CCCCC4)cnc32)cc1 [A-324, (4-amino-1-(4-methoxyphenyl)-1H-pyrrolo[2,3-b]pyridin-5-yl)(piperidin-1-yl)methanone]
IC50 (15-PGDH/HPGD; [3]): < 100 nM

SMILES: O=C(c1cnc2c(ccn2-c2ccccn2)c1)N1CCCCC1 [A-41]
IC50 (15-PGDH/HPGD; [3]): < 100 nM

SMILES: CN(C)C(=O)c1ccc(-n2ccc3cc(C(=O)N4CCCCC4)cnc32)cc1 [Formula V]
AUCinf [1]: 263.35 ng·h/mL
AUClast [1]: 262.46 ng·h/mL
C0/Cmax [1]: 1442.49 ng/mL
CL [1]: 63.29 mL/min/kg
T1/2 [1]: 18 min
Vss [1]: 0.76 L/kg
% Remaining at 45 Minutes (Mouse Liver Microsomes + NADPH) [2]: 86%

SMILES: O=C(c1cnc2c(ccn2-c2ccc(-c3nnc(C(F)(F)F)[nH]3)nc2)c1)N1CCC(F)(F)CC1 [A-334, (4,4-Difluoropiperidin-1-yl)(1-(6-(5-(trifluoromethyl)-4H-1,2,4-triazol-3-yl)pyridin-3-yl)-1H-pyrrolo[2,3-b]pyridin-5-yl)methanone]
IC50 (15-PGDH/HPGD; [3]): < 100 nM

SMILES: Cc1ccc(S(=O)(=O)n2ccc3cc(C(=O)N4CCCCC4)cnc32)cc1 [A-111, piperidin-1-yl(1-tosyl-1H-pyrrolo[2,3-b]pyridin-5-yl)methanone]
IC50 (15-PGDH/HPGD; [3]): ≥ 1000 nM

SMILES: NC(=O)[C@@H]1CCCN1C(=O)c1ccc(-n2ccc3cc(C(=O)N4CCC(F)(F)CC4)cnc32)cc1 [A-248, (S)-1-(4-(5-(4,4-difluoropiperidine-1-carbonyl)-1H-pyrrolo[2,3-b]pyridin-1-yl)benzoyl)pyrrolidine-2-carboxamide]
IC50 (15-PGDH/HPGD; [3]): < 100 nM
